Experimental data: ChEMBL document CHEMBL1152136, “2-Trifluoroacetylthiophene oxadiazoles as potent and selective class II human histone deacetylase inhibitors” (Bioorg Med Chem Lett, 2008)

Legend:
[1] = biological target: Histone deacetylase 4 (Homo sapiens, UniProt P56524); test: Inhibition of His-tagged HDAC4 catalytic domain expressed in Escherichia coli
[2] = biological target: Histone deacetylase 1 (Homo sapiens, UniProt Q13547); test: Inhibition of HDAC1
[3] = biological target: Histone deacetylase 3 (Homo sapiens, UniProt O15379); test: Inhibition of HDAC3
[4] = biological target: T1, Protein deacetylase HDAC6 (Homo sapiens, UniProt Q9UBN7); test: Inhibition of HDAC6
T1 sequence (Q9UBN7 whole entry): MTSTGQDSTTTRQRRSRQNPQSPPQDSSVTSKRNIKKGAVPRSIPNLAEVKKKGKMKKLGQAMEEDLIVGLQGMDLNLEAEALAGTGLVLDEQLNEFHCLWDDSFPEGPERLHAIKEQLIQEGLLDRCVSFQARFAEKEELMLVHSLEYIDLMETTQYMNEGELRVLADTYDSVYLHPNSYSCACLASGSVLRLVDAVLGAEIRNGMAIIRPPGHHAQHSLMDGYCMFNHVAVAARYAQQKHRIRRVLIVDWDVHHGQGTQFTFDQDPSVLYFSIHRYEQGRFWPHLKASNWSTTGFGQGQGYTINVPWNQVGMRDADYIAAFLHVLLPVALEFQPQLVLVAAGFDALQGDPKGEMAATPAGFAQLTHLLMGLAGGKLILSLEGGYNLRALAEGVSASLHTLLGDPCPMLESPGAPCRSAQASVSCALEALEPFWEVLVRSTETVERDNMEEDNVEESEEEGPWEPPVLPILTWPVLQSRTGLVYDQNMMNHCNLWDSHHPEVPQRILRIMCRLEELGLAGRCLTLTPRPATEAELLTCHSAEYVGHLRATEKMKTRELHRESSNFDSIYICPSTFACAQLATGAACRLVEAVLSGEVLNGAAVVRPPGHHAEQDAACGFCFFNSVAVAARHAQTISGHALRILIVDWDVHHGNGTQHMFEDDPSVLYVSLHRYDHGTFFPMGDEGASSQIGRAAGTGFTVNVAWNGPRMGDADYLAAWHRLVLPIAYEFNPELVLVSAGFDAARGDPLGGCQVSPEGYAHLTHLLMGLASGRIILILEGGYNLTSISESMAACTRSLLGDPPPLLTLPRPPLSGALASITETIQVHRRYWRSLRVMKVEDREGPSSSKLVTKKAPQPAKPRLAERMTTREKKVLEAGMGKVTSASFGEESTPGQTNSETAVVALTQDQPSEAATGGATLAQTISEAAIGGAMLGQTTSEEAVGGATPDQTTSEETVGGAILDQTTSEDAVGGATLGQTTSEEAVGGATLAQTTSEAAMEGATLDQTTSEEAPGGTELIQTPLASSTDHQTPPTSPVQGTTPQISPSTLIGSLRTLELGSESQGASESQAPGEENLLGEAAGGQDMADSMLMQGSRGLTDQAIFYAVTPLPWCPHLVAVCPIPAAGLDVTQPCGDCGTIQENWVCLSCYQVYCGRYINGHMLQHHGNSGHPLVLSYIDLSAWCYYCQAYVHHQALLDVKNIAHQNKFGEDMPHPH

[5] = Metabolic stability in S9 fraction of human HCT116 cells assessed as half life in presence of NADPH and regenerating system; type: ADME, cell-based, HCT-116
[6] = Metabolic stability in human HCT116 cells assessed as half life at 5 uM in presence of 10% FBS; type: ADME, cell-based, HCT-116
[7] = Selectivity for His-tagged HDAC4 catalytic domain over HDAC1
[8] = biological target: T1, Protein deacetylase HDAC6; test: Inhibition of HDAC6 in human HCT116 cells assessed as inhibition of alpha-tubulin deacetylation; type: cell-based, HCT-116

Chain of Histone deacetylase 4 (P56524 whole entry, the tested form may be a part): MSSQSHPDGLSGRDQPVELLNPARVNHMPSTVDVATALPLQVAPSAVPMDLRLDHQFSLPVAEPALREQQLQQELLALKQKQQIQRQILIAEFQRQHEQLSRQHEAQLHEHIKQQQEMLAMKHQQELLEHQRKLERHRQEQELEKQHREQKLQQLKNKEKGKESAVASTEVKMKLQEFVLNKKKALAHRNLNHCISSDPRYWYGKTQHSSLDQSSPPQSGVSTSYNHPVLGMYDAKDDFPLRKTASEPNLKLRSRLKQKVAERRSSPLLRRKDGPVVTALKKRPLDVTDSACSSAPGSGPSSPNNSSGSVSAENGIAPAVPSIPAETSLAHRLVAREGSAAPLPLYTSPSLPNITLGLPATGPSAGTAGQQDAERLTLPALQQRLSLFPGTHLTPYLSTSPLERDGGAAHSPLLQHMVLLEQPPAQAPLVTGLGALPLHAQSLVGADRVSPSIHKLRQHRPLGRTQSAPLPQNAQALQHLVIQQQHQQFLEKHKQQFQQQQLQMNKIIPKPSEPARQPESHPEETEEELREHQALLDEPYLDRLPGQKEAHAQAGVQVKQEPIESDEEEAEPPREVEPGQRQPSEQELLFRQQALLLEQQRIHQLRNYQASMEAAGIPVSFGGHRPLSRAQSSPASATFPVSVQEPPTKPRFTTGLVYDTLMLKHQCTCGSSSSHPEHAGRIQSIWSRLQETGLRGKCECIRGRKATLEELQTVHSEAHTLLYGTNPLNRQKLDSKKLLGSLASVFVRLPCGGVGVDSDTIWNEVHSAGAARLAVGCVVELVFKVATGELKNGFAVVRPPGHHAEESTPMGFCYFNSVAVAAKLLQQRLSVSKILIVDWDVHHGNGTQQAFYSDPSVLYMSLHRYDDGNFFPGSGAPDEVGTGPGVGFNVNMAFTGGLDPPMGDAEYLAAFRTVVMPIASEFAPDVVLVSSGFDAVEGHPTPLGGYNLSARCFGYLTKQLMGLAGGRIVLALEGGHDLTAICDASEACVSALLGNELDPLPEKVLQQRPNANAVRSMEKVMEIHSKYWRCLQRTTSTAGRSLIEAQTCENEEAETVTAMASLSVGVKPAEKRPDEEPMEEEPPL
Chain of Histone deacetylase 3 (O15379 whole entry): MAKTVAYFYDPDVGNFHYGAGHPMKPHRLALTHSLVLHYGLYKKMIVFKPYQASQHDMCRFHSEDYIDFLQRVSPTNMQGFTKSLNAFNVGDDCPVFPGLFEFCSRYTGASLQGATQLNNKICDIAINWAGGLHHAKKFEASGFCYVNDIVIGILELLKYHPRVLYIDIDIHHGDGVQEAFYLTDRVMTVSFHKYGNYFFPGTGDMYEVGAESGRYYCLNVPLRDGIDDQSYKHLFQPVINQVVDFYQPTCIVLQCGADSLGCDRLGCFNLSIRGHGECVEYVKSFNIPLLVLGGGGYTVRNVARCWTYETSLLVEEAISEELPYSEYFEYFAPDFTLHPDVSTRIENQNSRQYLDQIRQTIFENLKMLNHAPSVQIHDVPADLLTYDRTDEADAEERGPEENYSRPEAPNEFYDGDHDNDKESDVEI
Chain of Histone deacetylase 1 (Q13547 whole entry): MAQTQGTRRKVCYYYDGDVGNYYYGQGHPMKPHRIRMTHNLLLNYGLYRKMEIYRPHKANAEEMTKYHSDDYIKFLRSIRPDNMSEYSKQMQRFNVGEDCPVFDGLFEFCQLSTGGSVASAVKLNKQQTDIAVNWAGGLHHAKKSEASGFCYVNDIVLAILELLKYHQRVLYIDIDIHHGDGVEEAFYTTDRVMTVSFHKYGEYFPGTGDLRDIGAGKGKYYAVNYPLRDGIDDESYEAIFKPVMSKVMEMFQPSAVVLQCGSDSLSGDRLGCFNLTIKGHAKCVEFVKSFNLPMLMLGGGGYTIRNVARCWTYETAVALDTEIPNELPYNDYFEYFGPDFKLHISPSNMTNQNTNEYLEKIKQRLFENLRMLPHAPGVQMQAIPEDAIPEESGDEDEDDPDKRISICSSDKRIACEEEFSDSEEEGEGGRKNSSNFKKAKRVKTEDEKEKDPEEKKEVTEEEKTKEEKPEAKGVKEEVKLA

Row | SMILES | IC50 [1] | IC50 [2] | IC50 [3] | IC50 [4] | half-life [5] | half-life at 5 µM [6] | Ratio IC50 [7] | IC50 [8]
1 | O=C(NCc1ccccc1)c1ccc(C(=O)C(F)(F)F)s1 | 243 nM | 467 nM | 520 nM | 370 nM |  |  |  | 
2 | Cc1cccc(-c2noc(-c3ccc(C(=O)C(F)(F)F)s3)n2)c1 | 280 nM | 6540 nM | > 1000 nM | 680 nM |  |  |  | 
3 | O=C(c1ccc(-c2nc(-c3ccc(F)cc3)no2)s1)C(F)(F)F | 220 nM | 5900 nM | > 1000 nM | 270 nM |  |  |  | 
4 | CCCS(=O)(=O)Cc1noc(-c2ccc(C(=O)C(F)(F)F)s2)n1 | 30 nM | 2220 nM | > 1000 nM | 240 nM | 45 min | 720 min | > 70 | 500 nM
5 | O=C1COc2ccccc2N1Cc1noc(-c2ccc(C(=O)C(F)(F)F)s2)n1 | 15 nM | 1170 nM | > 1000 nM | 410 nM | 25 min |  | > 75 | 
6 | O=C(c1ccc(-c2ncc(-c3ccccc3)s2)s1)C(F)(F)F | 1500 nM | > 10000 nM |  | 1350 nM |  |  |  | 
7 | O=C(c1ccc(-c2nc(-c3ccccn3)no2)s1)C(F)(F)F | 90 nM | 2800 nM |  | 500 nM |  |  |  | 
8 | Cc1ccc(-c2nnc(-c3ccc(C(=O)C(F)(F)F)s3)o2)cc1 | 270 nM | 1800 nM | > 1000 nM | 600 nM |  |  |  | 
9 | CS(=O)(=O)Cc1noc(-c2ccc(C(=O)C(F)(F)F)s2)n1 | 30 nM | 2470 nM | > 1000 nM | 320 nM | > 120 min | 780 min | > 70 | 640 nM
10 | O=C(c1ccc(-c2nc(Cc3cccs3)no2)s1)C(F)(F)F | 15 nM | 990 nM | 630 nM | 170 nM | 35 min |  | 70 | 
11 | O=C(Cc1noc(-c2ccc(C(=O)C(F)(F)F)s2)n1)N1CCCC1 | 60 nM | 5900 nM |  | 710 nM |  |  | > 75 | 
12 | O=C(c1ccc(-c2nc(-c3ccncc3)no2)s1)C(F)(F)F | 590 nM | > 10000 nM |  | 570 nM |  |  |  | 

Results, then the compound that gave them:

Row | IC50 [1] | IC50 [2] | IC50 [3] | IC50 [4] | half-life [5] | half-life at 5 µM [6] | Ratio IC50 [7] | IC50 [8] | SMILES
13 | 60 nM | 6550 nM | > 1000 nM | 700 nM | 35 min | 330 min |  |  | O=C(c1ccc(-c2nc(CS(=O)(=O)Cc3ccc(F)cc3)no2)s1)C(F)(F)F
14 | 110 nM | 7400 nM | > 1000 nM | 580 nM |  |  |  |  | O=C(c1ccc(-c2nc(-c3ccccc3)no2)s1)C(F)(F)F
15 | 320 nM | 17500 nM | > 1000 nM | 2450 nM |  |  |  |  | O=C(c1ccc(-c2nc(-c3cccc(C(F)(F)F)c3)no2)s1)C(F)(F)F
16 |  |  | > 10000 nM |  |  |  |  |  | CCNC(=O)c1ccc(C(=O)C(F)(F)F)s1
17 | 95 nM | 2900 nM |  | 670 nM |  |  |  |  | O=C(c1ccc(-c2nc(-c3cccs3)no2)s1)C(F)(F)F
18 | 110 nM | 6800 nM |  | 860 nM |  |  |  |  | Cc1ccc(-c2noc(-c3ccc(C(=O)C(F)(F)F)s3)n2)cc1
19 | 420 nM | 2970 nM | 500 nM | 330 nM |  |  |  |  | O=C(c1ccc(-c2nnc(-c3ccccc3)o2)s1)C(F)(F)F
20 | > 2000 nM | 16600 nM | > 1000 nM | 3540 nM |  |  |  |  | CC(C)(C)c1ccc(-c2noc(-c3ccc(C(=O)C(F)(F)F)s3)n2)cc1
21 | 35 nM | 3890 nM | > 1000 nM | 520 nM | 44 min | 360 min | > 100 |  | O=C(c1ccc(-c2nc(CS(=O)(=O)c3cccs3)no2)s1)C(F)(F)F
22 | 120 nM | 4200 nM | > 1000 nM | 580 nM | > 120 min |  |  |  | O=C(c1ccc(-c2nc(-c3ccc(F)cc3F)no2)s1)C(F)(F)F
23 | 75 nM | 7600 nM | 7100 nM | 650 nM | > 120 min |  |  |  | Cc1noc(-c2ccc(C(=O)C(F)(F)F)s2)n1
24 | 200 nM | > 10000 nM |  | 11000 nM |  |  |  |  | O=C(c1ccc(-c2nc(-c3ccc(C(F)(F)F)cc3)no2)s1)C(F)(F)F
25 | 70 nM | 2200 nM |  | 840 nM |  |  |  |  | O=C(c1ccc(-c2nc(-c3cccnc3)no2)s1)C(F)(F)F
26 | 450 nM | 2600 nM | 500 nM | 160 nM |  |  |  |  | O=C(c1ccc(-c2nnc(-c3cccs3)o2)s1)C(F)(F)F
27 | 240 nM | > 5000 nM |  | 3000 nM |  |  |  |  | O=C(c1ccc(-c2nc(-c3ccc(Cl)cc3Cl)no2)s1)C(F)(F)F
28 |  | 4800 nM |  |  | 18 min |  |  |  | O=C(c1ccc(-c2nc(COc3ccc(-c4nnco4)cc3)no2)s1)C(F)(F)F
29 |  |  |  |  | 15 min |  |  |  | CN(Cc1ccccc1)C(=O)c1ccc(C(=O)C(F)(F)F)s1
